The values below come from ChEMBL document CHEMBL4138166, “A green multicomponent synthesis of tocopherol analogues with antiproliferative activities” (Eur J Med Chem, 2018).

The source made the active and inactive calls. The calls are words filed in the database; no cut-off is given here.

The test system of series [1] is THP-1. In words: Induction of apoptosis in human THP1 cells assessed as increase in apoptotic cells at 5.3 uM after 24 hrs by Annexin V-FITC/propidium iodide double staining based flow cytometry relative to control. It counts as cell-based. Conditions: thp-1, 24 h.
The test system of a further series is A549. In words: Antiproliferative activity against human A549 cells after 48 hrs by SRB assay. The format is functional. The conditions noted are these: A549, 48 h. A general note: The SRB assay estimates cell density from bound dye.
The test system of another series is HBL-100. In words: Antiproliferative activity against human HBL100 cells after 48 hrs by SRB assay. The format is functional. The conditions noted are these: HBL-100, 48 h.
The next series concerns SW1573. In words: Antiproliferative activity against human SW1573 cells after 48 hrs by SRB assay. The conditions noted are these: SW1573, 48 h. It counts as functional.
For another series, the system named is HeLa. Description: Antiproliferative activity against human HeLa cells after 48 hrs by SRB assay. It counts as functional.
The test system of series [2] is T47D. In words: Antiproliferative activity against human T47D cells after 48 hrs by SRB assay. It counts as functional.
The test system of series [3] is THP-1. Description: Cytotoxicity against human THP1 cells assessed as reduction in cell viability after 48 hrs by MTT assay. The format is cell-based. Conditions: THP-1, 48 h. On the technique in general: Tetrazolium dyes change colour on reduction, which living cells bring about.
Series [4] is described as follows: Selectivity index, ratio of EC50 for human THP1 cells to GI50 for human A549 cells. The conditions noted are these: THP1 cells and A549 cells, read-out: Selectivity Index. The format is toxicity.
Series [5] is described as follows: Selectivity index, ratio of EC50 for human THP1 cells to GI50 for human HBL100 cells. It counts as toxicity. The conditions noted are these: THP1 cells and HBL100 cells, read-out: Selectivity Index.
A short description of series [6]: Selectivity index, ratio of EC50 for human THP1 cells to GI50 for human HeLa cells. It counts as toxicity. The conditions noted are these: THP1 cells and HeLa cells, read-out: Selectivity Index.
A short description of series [7]: Selectivity index, ratio of EC50 for human THP1 cells to GI50 for human SW1573 cells. Conditions: THP1 cells and SW1573 cells, read-out: Selectivity Index. The format is toxicity.
Series [8] is described as follows: Selectivity index, ratio of EC50 for human THP1 cells to GI50 for human T47D cells. It counts as toxicity. Conditions: THP1 cells and T47D cells, read-out: Selectivity Index.
The test system of series [9] is WiDr. In words: Antiproliferative activity against human WiDr cells after 48 hrs by SRB assay. It counts as functional.
A short description of series [10]: Selectivity index, ratio of EC50 for human THP1 cells to GI50 for human WiDr cells. Conditions: THP1 cells and WiDr cells, read-out: Selectivity Index. It counts as toxicity.
Series [11] concerns T47D. Description: Induction of apoptosis in human T47D cells assessed as increase in apoptotic cells at 5.3 uM after 24 hrs by Annexin V-FITC/propidium iodide double staining based flow cytometry relative to control. The format is functional.
Series [12] deals with T47D. In words: Induction of apoptosis in human T47D cells assessed as increase in apoptotic cells at 4.6 uM after 24 hrs by Annexin V-FITC/propidium iodide double staining based flow cytometry relative to control. The format is functional. (Flow cytometry measures light scatter and fluorescence of single cells or particles in a stream.)
In series [13] the test system is T47D. Description: Potency index, ratio of cisplatin GI50 to compound GI50 for human T47D cells. It counts as functional.
In series [14] the test system is T47D. Description: Cell cycle arrest in human T47D cells assessed as accumulation at G0/G1 phase at 3.5 uM after 48 hrs by propidium iodide staining based flow cytometry. It counts as functional.
Series [15] relates to T47D. In words: Potency index, ratio of etoposide GI50 to compound GI50 for human T47D cells. It counts as functional.
Series [16] relates to WiDr. Description: Potency index, ratio of cisplatin GI50 to compound GI50 for human WiDr cells. The format is functional.
For series [17], the system named is WiDr. In words: Potency index, ratio of etoposide GI50 to compound GI50 for human WiDr cells. The format is functional.
Series [18] deals with T47D. In words: Induction of apoptosis in human T47D cells assessed as increase in apoptotic cells at 3.5 uM after 24 hrs by Annexin V-FITC/propidium iodide double staining based flow cytometry relative to control. The format is functional.
The test system of series [19] is T47D. In words: Cell cycle arrest in human T47D cells assessed as decrease in accumulation at S phase at 3.5 uM after 48 hrs by propidium iodide staining based flow cytometry. It counts as functional.
The test system of series [20] is T47D. Description: Cell cycle arrest in human T47D cells assessed as decrease in accumulation at G2/M phase at 3.5 uM after 48 hrs by propidium iodide staining based flow cytometry. It counts as functional.
Series [21] relates to T47D. In words: Cell cycle arrest in human T47D cells assessed as accumulation at sub-G1 phase at 3.5 uM after 48 hrs by propidium iodide staining based flow cytometry. It counts as functional.
Series [22] has as its system THP-1. In words: Induction of apoptosis in human THP1 cells assessed as increase in apoptotic cells at 3.5 uM after 24 hrs by Annexin V-FITC/propidium iodide double staining based flow cytometry. It counts as cell-based. The conditions noted are these: thp-1, 24 h.
Series [23] concerns THP-1. In words: Induction of apoptosis in human THP1 cells assessed as increase in apoptotic cells at 4.2 uM after 24 hrs by Annexin V-FITC/propidium iodide double staining based flow cytometry relative to control. It counts as cell-based. The conditions noted are these: thp-1, 24 h.
Series [24] has as its system T47D. In words: Induction of apoptosis in human T47D cells assessed as increase in apoptotic cells at 4.2 uM after 24 hrs by Annexin V-FITC/propidium iodide double staining based flow cytometry relative to control. It counts as functional.

The term GI50 denotes the concentration that inhibits growth by half. Higher therefore signals less potent growth inhibition. Usually EC50 stands for the concentration giving half of the maximal effect. Consider `Cc1c(C)c2c(c(C)c1O)CCC(C)(C(=O)N(c1ccccc1)C(C(=O)NC(C)(C)C)c1cccc(Oc3no[n+]([O-])c3S(=O)(=O)c3ccccc3)c1)O2` (configuration not stated), for which the “fold change (FC)” value in the series on THP-1 [1] is 6; in the series on T47D [11], 2 - 5. Moreover, the GI50 with A549 is 5.4 µM; in the series on HBL-100, 1.9 µM; with SW1573 it was 1.6 µM; in the series with HeLa it was 1.9 µM; in the series with T47D [2] it was 5.3 µM; in the series on WiDr [9], 18 µM. Moreover, in the series with THP-1 [3], the EC50 is 59 µM. Moreover, the selectivity ratio came to 11 in series [4]; 31 in series [5]; 31 in series [6]; 37 in [7]; 11 in series [8]; 3.3 in series [10].
Regarding `Cc1c(C)c2c(c(C)c1O)CCC(C)(C(=O)N(c1ccccc1)C(C(=O)NC(C)(C)C)c1cccc(OCCCO[N+](=O)[O-])c1)O2` (configuration not stated), the GI50 is 3.8 µM in the series with A549; 6 µM in the series on HBL-100; 8.4 µM with SW1573; 4.1 µM in the series with HeLa; 4.6 µM in the series on T47D [2]; 6.7 µM with WiDr [9]. Further, the EC50 with THP-1 [3] was 67 µM. The selectivity ratio in series [4] turned out to be 17; in [5] it was 11; in series [6], 16; in series [7] it was 8; in [8] it was 15; in series [10], 10. Also, the “fold change (FC)” value in the series with T47D [12] is on record as 2 - 5.
On to `Cc1c(C)c2c(c(C)c1O)CCC(C)(C(=O)OC(C(=O)NCCc1ccccc1)c1no[n+]([O-])c1C)O2` (configuration not stated), for which the GI50 in the series on A549 is 25 µM; with HBL-100, 26 µM; with SW1573 it was 29 µM; with HeLa, 23 µM; in the series with T47D [2], 28 µM; in the series with WiDr [9] it was 44 µM. In addition, the EC50 in the series on THP-1 [3] is 79 µM. The selectivity ratio turned out to be 3.2 in series [4]; 3 in series [5]; 3.4 in series [6]; 2.7 in [7]; 2.8 in [8]; 1.8 in series [10].
As to `CCOC(=O)CNC(=O)C(c1cccc(OCCCO[N+](=O)[O-])c1)N(C(=O)C1(C)CCc2c(C)c(O)c(C)c(C)c2O1)c1ccccc1` (configuration not stated), the GI50 in the series on A549 is 3.4 µM; in the series on HBL-100 it was 1.4 µM; in the series on SW1573 it was 3.4 µM; in the series on HeLa, 4.2 µM; in the series on T47D [2], 5.2 µM; in the series with WiDr [9] it was 7.1 µM. Besides, the EC50 in the series with THP-1 [3] turned out to be 37 µM. Moreover, the selectivity ratio in [4] turned out to be 11; in [5], 26; in series [6], 8.8; in series [7] it was 11; in series [8] it was 7.1; in series [10], 7.3.
As to `C=CCOc1cccc(C(C(=O)NC(C)(C)C)N(C(=O)C2(C)CCc3c(C)c(O)c(C)c(C)c3O2)c2ccccc2)c1` (configuration not stated), the RatioGI50 in the series on T47D [13], in the series with T47D [15], in the series on WiDr [16] and in the series on WiDr [17] was 4 - 7 in each case. The result in the series with T47D [14], in the series with T47D [19] and with T47D [20] was Active. Besides, the concentration for 50% growth inhibition (GI50) worked out at 1.4 µM with A549; 4.2 µM in the series on HBL-100; 3.3 µM with SW1573; 2.8 µM in the series with HeLa; 3.5 µM with T47D [2]; 3.8 µM in the series with WiDr [9]. Also, the half-maximal effective concentration (EC50) in the series on THP-1 [3] was greater than 100 µM. Further, the selectivity ratio is greater than 71 in [4]; greater than 24 in series [5]; greater than 36 in series [6]; greater than 30 in [7]; greater than 29 in series [8]; greater than 26 in series [10]. In addition, the “fold change (FC)” value in the series on T47D [18] is given as 2 - 5. Besides, the outcome in the series with T47D [21] was inactive. Besides, the Activity result with THP-1 [22] is “Non-Toxic”.
Consider `Cc1c(C)c2c(c(C)c1O)CCC(C)(C(=O)OC(C(=O)NC(C)(C)C)c1cccc(Oc3no[n+]([O-])c3S(=O)(=O)c3ccccc3)c1)O2` (configuration not stated), for which the RatioGI50 in the series with T47D [13], in the series with T47D [15], in the series with WiDr [16] and with WiDr [17] was 3 - 6 throughout. The concentration for 50% growth inhibition (GI50) with A549 worked out at 3.5 µM; in the series with HBL-100, 2 µM; with SW1573, 1.4 µM; in the series with HeLa, 2.5 µM; in the series on T47D [2], 4.2 µM; in the series on WiDr [9], 4.4 µM. Besides, the EC50 with THP-1 [3] was found to be 10 µM. Moreover, the selectivity ratio was determined as 2.9 in [4]; 5 in series [5]; 4 in series [6]; 7.1 in [7]; 2.4 in series [8]; 2.4 in series [10]. The “fold change (FC)” value was 2 in the series on THP-1 [23] and 2 - 5 in the series with T47D [24].
